Values quoted from earlier work in patent US7276641B2, “External plaster containing 4-biphenylacetic acid” (Teikoku Seiyaku Co., Ltd., priority 2000, dated 2007).
Like-named read-outs stand apart in the source and are kept apart here.

In the case of `O=C(O)Cc1ccc(-c2ccccc2)cc1` [BPAA, 4-biphenylyl acetic acid], the solubility (aqueous plaster with diisopropanolamine as solubilizer) is listed as “not more than 11%”, the solubility (crotamiton as solubilizer) is listed as “at most 7%” and the solubility (in acetone, ethanol, glacial acetic acid, and ether) is listed as “less soluble”. The solubility (in dimethylacetamide) was “readily soluble”, the solubility (in polyols, glycols, and esters) was “hardly soluble” and the solubility (in water) was “hardly soluble”.
